Reference: US20140155445A1, “Compounds and Methods for Treating Cancer and Diseases of the Central Nervous System” (Osta Biotechnologies Inc., priority 2007, published 2014)
Where a name gives a salt, the structure may show the parent alone. Read-outs that look alike come from different tables or passages of the source.

Legend:
HO-1 (rat spleen) = target: T1, HO-1 (rat spleen) (Rattus norvegicus, UniProt P06762); assay: HO enzymatic activity in rat spleen microsomal fraction (CO formed from methemalbumin, gas chromatography); type: biochemical
T1 construct: Spleen microsomes were used as a source of HO-1; from tissue; host or cells: spleen microsomal fraction of adult male Sprague-Dawley rats
T1 sequence (P06762 1-289): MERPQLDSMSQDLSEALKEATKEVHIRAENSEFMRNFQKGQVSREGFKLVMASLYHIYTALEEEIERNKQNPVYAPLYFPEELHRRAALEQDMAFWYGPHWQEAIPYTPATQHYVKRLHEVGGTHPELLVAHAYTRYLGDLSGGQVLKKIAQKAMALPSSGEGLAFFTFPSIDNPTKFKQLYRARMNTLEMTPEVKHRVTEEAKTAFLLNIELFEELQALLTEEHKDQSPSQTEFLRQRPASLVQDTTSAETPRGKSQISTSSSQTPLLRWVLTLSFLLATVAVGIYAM

HO-2 (rat brain) = target: T2, HO-2 (rat brain) (Rattus norvegicus, UniProt P23711); assay: HO enzymatic activity in rat brain microsomal fraction (CO formed from methemalbumin, gas chromatography); type: biochemical
T2 construct: brain microsomes were used as a source of HO-2; from tissue; host or cells: brain microsomal fraction of adult male Sprague-Dawley rats
T2 sequence (P23711 1-315): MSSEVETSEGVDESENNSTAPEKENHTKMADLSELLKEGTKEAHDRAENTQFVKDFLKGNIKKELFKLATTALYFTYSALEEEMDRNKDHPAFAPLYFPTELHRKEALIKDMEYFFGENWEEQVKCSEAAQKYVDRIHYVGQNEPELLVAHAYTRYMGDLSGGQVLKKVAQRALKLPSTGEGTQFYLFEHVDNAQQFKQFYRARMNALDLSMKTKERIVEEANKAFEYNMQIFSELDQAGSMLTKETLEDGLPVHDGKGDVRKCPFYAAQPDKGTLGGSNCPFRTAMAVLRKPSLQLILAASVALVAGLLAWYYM

[1] = rat spleen microsomes, average ± standard deviation of replicate experiments, read-out: IC50 HO-1 (rat spleen)/μM
[2] = rat brain microsomes, average ± standard deviation of replicate experiments, read-out: IC50 HO-2 (rat brain)/μM

Row | Molecule | melting point | IC50 (HO-1 (rat spleen); [1]) | IC50 (HO-2 (rat brain); [2]) | IC50 (HO-1 (rat spleen)) | IC50 (HO-2 (rat brain))
1 | Cl.Clc1ccc(CC[C@@]2(Cn3ccnc3)OC[C@@H](CSC3CCCCC3)O2)cc1 | 172 to 173 °C |  |  |  | 
2 | C[C@H]1CO[C@@](CCc2ccc(Cl)cc2)(Cn2ccnc2)O1.Cl | 148 to 149 °C |  |  |  | 
3 | C[C@H]1CO[C@](CCc2ccc(Cl)cc2)(Cn2ccnc2)O1.Cl | 172 to 173 °C |  |  |  | 
4 | Cl.Clc1ccc(CC[C@@]2(Cn3ccnc3)OC[C@@H](CSc3ccc(Br)cc3)O2)cc1 | 141 to 142 °C |  |  |  | 
5 | COc1ccc(SC[C@@H]2CO[C@@](CCc3ccc(Cl)cc3)(Cn3ccnc3)O2)cc1.Cl | 139 to 140 °C |  |  |  | 
6 | Cl.Fc1ccc(CCC2(Cn3ccnc3)OCCO2)cc1 | 153 to 154 °C |  |  |  | 
7 | Cl.c1ccc(CCC2(Cn3ccnc3)OCCO2)cc1 | 164 to 165 °C |  |  |  | 
8 | Cl.FC(F)(F)c1ccc(SC[C@@H]2CO[C@@](CCc3ccc(Cl)cc3)(Cn3ccnc3)O2)nc1 | 156 to 157 °C |  |  |  | 
9 | CSC[C@@H]1CO[C@@](CCc2ccc(Cl)cc2)(Cn2ccnc2)O1 [(2R,4S)-2-[2-(4-chlorophenyl)ethyl]-2-[(1H-imidazol-1-yl)methyl]-4-[(methylthio)methyl]-1,3-dioxolane hydrochloride] |  | 9 ± 2 µM | 19 ± 7 µM |  | 
10 | Cc1ccc(S(=O)(=O)OC[C@@H]2CO[C@@](CCc3ccc(Cl)cc3)(Cn3ccnc3)O2)cc1 [(2R,4S)-2-[2-(4-chlorophenyl)ethyl]-2-[(1H-imidazol-1-yl)methyl]-4-[(p-toluenesulfonyloxy)meth-yl]-1,3-dioxolane] |  |  |  | 6 ± 2 µM | 3 ± 1 µM
11 | Clc1ccc(CC[C@@]2(Cn3ccnc3)OC[C@@H](CSc3ccccc3)O2)cc1 [(2R,4S)-2-[2-(4-chlorophenyl)ethyl]-2-[(1H-imidazol-1-yl)methyl]-4-[(phenylthio)methyl]-1,3-dioxolane hydrochloride] |  | 1.03 ± 0.07 µM | 34 ± 12 µM |  | 
12 | Nc1ccccc1SC[C@@H]1CO[C@@](CCc2ccc(Cl)cc2)(Cn2ccnc2)O1 [(2R,4S)-2-[2-(4-chlorophenyl)ethyl]-2-[(1H-imidazol-1-yl)methyl]-4-[{(2-aminophenyl)thio}meth-yl]-1,3-dioxolane dihydrochloride] |  | 4 ± 2 µM | 42 ± 28 µM |  | 
13 | Nc1cccc(SC[C@@H]2CO[C@@](CCc3ccc(Cl)cc3)(Cn3ccnc3)O2)c1 [(2R,4S)-2-[2-(4-chlorophenyl)ethyl]-2-[(1H-imidazol-1-yl)methyl]-4-[{(3-aminophenyl]-4-[{(3-aminophenyl)thio}meth-yl]-1,3-dioxolane hydrochloride] |  | 4 ± 2 µM | 6 ± 1 µM |  | 
14 | Nc1ccc(SC[C@@H]2CO[C@@](CCc3ccc(Cl)cc3)(Cn3ccnc3)O2)cc1 [(2R,4S)-2-[2-(4-chlorophenyl)ethyl]-2-[(1H-imidazol-1-yl)methyl]-4-[{(4-aminophenyl)thio}meth-yl]-1,3-dioxolane hydrochloride] |  | 0.33 ± 0.07 µM | 8 ± 1 µM |  | 
15 | Clc1ccc(CC[C@@]2(Cn3ccnc3)OC[C@@H](CSc3ccc(Br)cc3)O2)cc1 [(2R,4S)-2-[2-(4-chlorophenyl)ethyl]-2-[(1H-imidazol-1-yl)methyl]-4-[{(4-bromophenyl)thio}meth-yl]-1,3-dioxolane hydrochloride] |  | 2.1 ± 0.9 µM | 2.4 ± 0.1 µM |  | 
16 | Clc1ccc(CC[C@@]2(Cn3ccnc3)OC[C@@H](CSc3ccc(Cl)cc3)O2)cc1 [(2R,4S)-2-[2-(4-chlorophenyl)ethyl]-2-[(1H-imidazol-1-yl)methyl]-4-[{(4-chlorophenyl)thio}meth-yl]-1,3-dioxolane hydrochloride] |  | 2.8 ± 0.4 µM | 12 ± 5 µM |  | 
17 | Fc1ccc(SC[C@@H]2CO[C@@](CCc3ccc(Cl)cc3)(Cn3ccnc3)O2)cc1 [(2R,4S)-2-[2-(4-chlorophenyl)ethyl]-2-[(1H-imidazol-1-yl)methyl]-4-[{(4-fluorophenyl)thio}meth-yl]-1,3-dioxolane hydrochloride] |  | 2.2 ± 0.2 µM | 5 ± 4 µM |  | 
18 | Oc1ccc(SC[C@@H]2CO[C@@](CCc3ccc(Cl)cc3)(Cn3ccnc3)O2)cc1 [(2R,4S)-2-[2-(4-chlorophenyl)ethyl]-2-[(1H-imidazol-1-yl)methyl]-4-[{(4-hydroxyphenyl)thio}methyl]-1,3-dioxolane] |  | 1.59 ± 0.03 µM | 7 ± 2 µM |  | 
19 | COc1ccc(SC[C@@H]2CO[C@@](CCc3ccc(Cl)cc3)(Cn3ccnc3)O2)cc1 [(2R,4S)-2-[2-(4-chlorophenyl)ethyl]-2-[(1H-imidazol-1-yl)methyl]-4-[{(4-methoxyphenyl)thio}methyl]-1,3-dioxolane hydrochloride] |  | 0.7 ± 0.3 µM | 2.5 ± 0.4 µM |  | 

Row | Molecule | melting point | IC50 (HO-1 (rat spleen); [1]) | IC50 (HO-2 (rat brain); [2]) | IC50 (HO-1 (rat spleen)) | IC50 (HO-2 (rat brain))
20 | O=[N+]([O-])c1ccc(SC[C@@H]2CO[C@@](CCc3ccc(Cl)cc3)(Cn3ccnc3)O2)cc1 [(2R,4S)-2-[2-(4-chlorophenyl)ethyl]-2-[(1H-imidazol-1-yl)methyl]-4-[{(4-nitrophenyl)thio}meth-yl]-1,3-dioxolane hydrochloride] |  | 6 ± 2 µM | 19 ± 2 µM |  | 
21 | Clc1ccc(CC[C@@]2(Cn3ccnc3)OC[C@@H](CSc3ccncc3)O2)cc1 [(2R,4S)-2-[2-(4-chlorophenyl)ethyl]-2-[(1H-imidazol-1-yl)methyl]-4-[{(4-pyridinyl)thio}methyl]-1,3-dioxolane dihydrochloride] |  | 25 ± 5 µM | 69 ± 8 µM |  | 
22 | C[C@H]1CO[C@@](CCc2ccc(Cl)cc2)(Cn2ccnc2)O1 [(2R,4S)-2-[2-(4-chlorophenyl)ethyl]-2-[(1H-imidazol-1-yl)methyl]-4-methyl-1,3-dioxolane hydrochloride] |  | 2.6 ± 0.4 µM |  |  | > 100 µM
23 | FC(F)(F)c1ccc(SC[C@@H]2CO[C@@](CCc3ccc(Cl)cc3)(Cn3ccnc3)O2)nc1 [(2R,4S)-2-[2-(4-chlorophenyl)ethyl]-2-[(1H-imidazol-1-yl)methyl]-4[{(5-trifluoromethyl-pyridin-2-yl)ethio}methyl]-1,3-dioxolane hydrochloride] |  | 2.1 ± 0.6 µM | 16 ± 8 µM |  | 
24 | Cc1ccc(S(=O)(=O)OC[C@H]2CO[C@](CCc3ccc(Cl)cc3)(Cn3ccnc3)O2)cc1 [(2S,4R)-2-[2-(4-chlorophenyl)ethyl]-2-[(1H-imidazol-1-yl)methyl]-4-[(p-toluenesulfonyloxy)meth-yl]-1,3-dioxolane] |  |  |  | 17 ± 1 µM | 120 ± 34 µM
25 | Nc1ccccc1SC[C@H]1CO[C@](CCc2ccc(Cl)cc2)(Cn2ccnc2)O1 [(2S,4R)-2-[2-(4-chlorophenyl)ethyl]-2-[(1H-imidazol-1-yl)methyl]-4-[{(2-aminophenyl)thio}meth-yl]-1,3-dioxolane hydrochloride] |  | ~4.2 µM | > 100 µM |  | 
26 | C[C@@H]1CO[C@](CCc2ccc(Cl)cc2)(Cn2ccnc2)O1 [(2S,4R)-2-[2-(4-chlorophenyl)ethyl]-2-[(1H-imidazol-1-yl)methyl]-4-methyl-1,3-dioxolane hydrochloride] |  | 20 ± 4 µM | > 100 µM |  | 
27 | Clc1ccc(CC[C@]2(Cn3ccnc3)OC[C@@H](CSc3ccc4ccccc4c3)O2)cc1 [(2S,4S)-2-[2-(4-chlorophenyl)ethyl]-2-[(1H-imidazol-1-yl)methyl]-4-[{(2-naphthyl)thio}methyl]-1,3-dioxolane hydrochloride] |  | 14 ± 2 µM | 62 ± 7 µM |  | 
28 | C[C@H]1CO[C@](CCc2ccc(Cl)cc2)(Cn2ccnc2)O1 [(2S,4S)-2-[2-(4-chlorophenyl)ethyl]-2-[(1H-imidazol-1-yl)methyl]-4-methyl-1,3-dioxolane hydrochloride] |  | 12 ± 4 µM | > 100 µM |  | 
29 | COC(=O)Nc1nc2ccc([S+]([O-])c3ccccc3)cc2[nH]1 (stereo not drawn) [(5-benzenesulfinyl-1H-benzoimidazol-2-yl)-carbamic acid methyl ester] |  | 115 µM | > 100 µM |  | 
30 | c1ccc2[nH]cnc2c1 [Benzimidazole, reference compound] |  | > 100 µM | > 100 µM |  | 
31 | COC(=O)Nc1nc2ccc(Sc3ccccc3)cc2[nH]1 [Fenbendazol, reference compound] |  | > 100 µM | > 100 µM |  | 
32 | COC(=O)Nc1nc2cc(C(=O)c3ccc(F)cc3)ccc2[nH]1 [Flubendazol, reference compound] |  | > 100 µM | > 100 µM |  | 
33 | COC(=O)Nc1nc2ccc(C(=O)c3cccs3)cc2[nH]1 [Nocodazole, reference compound] |  | > 100 µM | > 100 µM |  | 
34 | FC[C@@H]1CO[C@@](CCc2ccc(Cl)cc2)(Cn2ccnc2)O1 [drawing 85, (2R,4S)-2-[2-(4-chlorophenyl)ethyl]-2-[(1H-imidazol-1-yl)methyl]-4-(fluoromethyl)-1,3-dioxolane hydrochloride] |  | 1.2 ± 0.01 µM | 4.4 ± 0.4 µM |  | 
35 | O=C(CCc1ccccc1)Cn1cnc(-c2ccccc2)c1 [drawing 162, 4-Phenyl-1-(4-phenyl-imidazol-1-yl)-butan-2-one hydrochloride] |  | 32 ± 2 µM | > 100 µM |  | 
36 | O=C(CCc1ccccc1)Cn1cnc(-c2ccccc2)c1 [drawing 256, 4-Phenyl-1-(4-phenyl-1H-imidazol-1-yl)-butan-2-one hydrochloride] |  | 32 ± 2 µM | > 100 µM |  | 
37 | Imidazole [reference compound] |  | > 100 µM | > 100 µM |  | 
